Data on 13 compounds can be found in ChEMBL document CHEMBL4665673, “Monomeric Targeted Protein Degraders” (J Med Chem, 2020).

pEC50, pIC50, pKd, pKi: −log10 of the molar value. Square brackets hold non-standard residues; d marks the D form. Peptide text beside a SMILES is read from it. Dip = N[C@H](C(=O)O)C(c1ccccc1)c1ccccc1; Chg = N[C@H](C(=O)O)C1CCCCC1; NMeA = CN[C@@H](C)C(=O)O

For test [1], the target named is Histone-lysine N-methyltransferase EZH2 (Homo sapiens, UniProt Q15910). Kind of test: Binding affinity to EZH2 (unknown origin).
Test [2] deals with Leucine-rich repeat serine/threonine-protein kinase 2 (Homo sapiens, UniProt Q5S007, G2019S). The test is described as follows: Inhibition of LRRK2 G2019S mutant (unknown origin).
The next test has as its system A2780. Kind of test: Growth inhibition of human A2780 cells incubated for 48 hrs by MTT assay. The format is functional, cell-based. The note with it: A2780, 48 h. On the technique in general: Tetrazolium assays rely on reduction of a dye to a coloured formazan, in cell work by metabolically active cells.
The nature of test [3]: Selectivity ratio of IC50 for human IOSE144 cells to IC50 for human OVCAR3 cells. In kind it is functional.
Test [4] is described as follows: Selectivity ratio of IC50 for human IOSE144 cells to IC50 for human A2780 cells. In kind it is functional.
For another test, the system named is OVCAR-3. Kind of test: Growth inhibition of human OVCAR3 cells incubated for 48 hrs by MTT assay. In kind it is functional, cell-based. The note with it: OVCAR-3, 48 h.
Test [5] in a line: Antiproliferative activity against human SK-N-BE2 cells after 72 hrs by CyQUANT reagent based assay relative to control. The format is functional. Conditions: SKNBE2.
Test [6] deals with Tyrosine-protein kinase JAK2 (Homo sapiens, UniProt O60674). The test is described as follows: Inhibition of human JAK2 using FITC-KGGEEEEYFELVKK as substrate by caliper microfluidic mobility shift assay.
A short description of test [7]: Downregulation of JAK2 mRNA expression in human PBMC at 1 uM after 22 hrs by qPCR analysis relative to control. In kind it is functional. (In qPCR the cycle at which signal appears reflects the starting amount.)
A short description of test [8]: Downregulation of JAK3 mRNA expression in human PBMC at 1 uM after 22 hrs by qPCR analysis relative to control. The format is functional.
The target in test [9] is Tyrosine-protein kinase JAK1 (Homo sapiens, UniProt P23458). The test is described as follows: Inhibition of human JAK1 using 5FAM-KKSRGDYMTMQID as substrate by caliper microfluidic mobility shift assay.
Test [10] concerns the target Non-receptor tyrosine-protein kinase TYK2 (Homo sapiens, UniProt P29597). Kind of test: Inhibition of human TYK2 using 5FAM-KKSRGDYMTMQID as substrate by caliper microfluidic mobility shift assay.
The target in test [11] is T1, Tyrosine-protein kinase JAK3 (Homo sapiens, UniProt P52333).
T1 sequence (P52333 whole entry): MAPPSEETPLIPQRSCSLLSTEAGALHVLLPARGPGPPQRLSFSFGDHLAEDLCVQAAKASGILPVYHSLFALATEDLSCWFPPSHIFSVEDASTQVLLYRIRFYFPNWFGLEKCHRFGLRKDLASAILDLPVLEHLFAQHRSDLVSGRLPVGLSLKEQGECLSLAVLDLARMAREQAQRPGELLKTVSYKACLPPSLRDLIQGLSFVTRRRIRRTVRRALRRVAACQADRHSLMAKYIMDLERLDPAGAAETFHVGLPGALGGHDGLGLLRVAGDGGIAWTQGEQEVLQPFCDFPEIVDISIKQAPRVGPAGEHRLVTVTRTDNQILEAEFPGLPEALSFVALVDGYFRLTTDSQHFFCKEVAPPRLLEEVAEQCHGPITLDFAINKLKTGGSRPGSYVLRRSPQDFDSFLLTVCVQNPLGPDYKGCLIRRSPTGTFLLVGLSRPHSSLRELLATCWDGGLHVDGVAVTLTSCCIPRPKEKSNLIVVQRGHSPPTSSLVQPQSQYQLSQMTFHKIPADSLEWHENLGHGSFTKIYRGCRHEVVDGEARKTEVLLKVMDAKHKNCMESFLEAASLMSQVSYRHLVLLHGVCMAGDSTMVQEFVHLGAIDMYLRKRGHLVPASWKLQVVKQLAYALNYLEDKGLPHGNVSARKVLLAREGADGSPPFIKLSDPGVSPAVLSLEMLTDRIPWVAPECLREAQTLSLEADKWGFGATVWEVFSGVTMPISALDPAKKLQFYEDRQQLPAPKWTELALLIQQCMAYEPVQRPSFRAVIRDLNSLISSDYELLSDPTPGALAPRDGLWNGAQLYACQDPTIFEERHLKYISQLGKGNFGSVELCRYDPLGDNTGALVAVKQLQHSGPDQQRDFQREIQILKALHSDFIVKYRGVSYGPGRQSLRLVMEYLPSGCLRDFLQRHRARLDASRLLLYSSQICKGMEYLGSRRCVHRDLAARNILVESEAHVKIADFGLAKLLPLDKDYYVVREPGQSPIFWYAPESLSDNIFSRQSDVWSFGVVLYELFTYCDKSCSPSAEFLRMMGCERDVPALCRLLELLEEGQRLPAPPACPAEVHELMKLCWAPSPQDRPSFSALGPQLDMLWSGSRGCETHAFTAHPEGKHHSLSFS
The test is described as follows: Inhibition of human JAK3 using FITC-KGGEEEEYFELVKK as substrate by caliper microfluidic mobility shift assay.

Test [12] addresses T2, B-cell lymphoma 6 protein (Homo sapiens, UniProt P41182, C67R/C84N/C8Q). Kind of test: Inhibition of BCL6 BTB domain (5 to 129 residues) C8Q/C67R/C84N triple mutant (unknown origin) expressed in Escherichia coli BL21(DE3) cells using 5-TAMRA-RSEIISTAPSSWVVPG incubated for 1 hr by fluorescence polarization assay.
A further test can be described thus: cells. The note with it: Homo sapiens, SKNBE2, 72 h.
For test [13], the target named is T2, B-cell lymphoma 6 protein. The test is described as follows: Inhibition of BCOR peptide binding to BCL6 BTB domain (5 to 129 residues) C8Q/C67R/C84N triple mutant (unknown origin) expressed in Escherichia coli BL21(DE3) cells preincubated for 30 mins followed by BCOR ULight peptide addition and measured after 240 mins by TR-FRET assay.
Test [14] has as its target B-cell lymphoma 6 protein (Homo sapiens) (UniProt P41182). Kind of test: Induction of BCL6 degradation in human SU-DHL-4 cells at 5 uM measured after 2 hrs by capillary electrophoresis relative to control. The format is cell-based.
Test [15] has the same target. The test is described as follows: Induction of BCL6 degradation in human SU-DHL-4 cells at 5 uM measured after 5 mins by capillary electrophoresis relative to control. The format is cell-based.
In test [16] the target is Baculoviral IAP repeat-containing protein 2 (Homo sapiens, UniProt Q13490). The test is described as follows: Binding affinity to c-IAP1-BIR3 (unknown origin) (124 to 240 residues) expressed in Escherichia coli BL21-Gold (DE3) by surface plasmon resonance assay. A general note: In SPR one partner is held on a chip, and binding of the other changes the refractive index at the surface.

In test [17] the target is E3 ubiquitin-protein ligase XIAP (Homo sapiens, UniProt P98170). Kind of test: Binding affinity to XIAP-BIR3 (unknown origin) (124 to 240 residues) expressed in Escherichia coli BL21-Gold (DE3) by surface plasmon resonance assay.
The target in the next test is T3, Androgen receptor (Homo sapiens, UniProt P10275).
T3 sequence (P10275 whole entry): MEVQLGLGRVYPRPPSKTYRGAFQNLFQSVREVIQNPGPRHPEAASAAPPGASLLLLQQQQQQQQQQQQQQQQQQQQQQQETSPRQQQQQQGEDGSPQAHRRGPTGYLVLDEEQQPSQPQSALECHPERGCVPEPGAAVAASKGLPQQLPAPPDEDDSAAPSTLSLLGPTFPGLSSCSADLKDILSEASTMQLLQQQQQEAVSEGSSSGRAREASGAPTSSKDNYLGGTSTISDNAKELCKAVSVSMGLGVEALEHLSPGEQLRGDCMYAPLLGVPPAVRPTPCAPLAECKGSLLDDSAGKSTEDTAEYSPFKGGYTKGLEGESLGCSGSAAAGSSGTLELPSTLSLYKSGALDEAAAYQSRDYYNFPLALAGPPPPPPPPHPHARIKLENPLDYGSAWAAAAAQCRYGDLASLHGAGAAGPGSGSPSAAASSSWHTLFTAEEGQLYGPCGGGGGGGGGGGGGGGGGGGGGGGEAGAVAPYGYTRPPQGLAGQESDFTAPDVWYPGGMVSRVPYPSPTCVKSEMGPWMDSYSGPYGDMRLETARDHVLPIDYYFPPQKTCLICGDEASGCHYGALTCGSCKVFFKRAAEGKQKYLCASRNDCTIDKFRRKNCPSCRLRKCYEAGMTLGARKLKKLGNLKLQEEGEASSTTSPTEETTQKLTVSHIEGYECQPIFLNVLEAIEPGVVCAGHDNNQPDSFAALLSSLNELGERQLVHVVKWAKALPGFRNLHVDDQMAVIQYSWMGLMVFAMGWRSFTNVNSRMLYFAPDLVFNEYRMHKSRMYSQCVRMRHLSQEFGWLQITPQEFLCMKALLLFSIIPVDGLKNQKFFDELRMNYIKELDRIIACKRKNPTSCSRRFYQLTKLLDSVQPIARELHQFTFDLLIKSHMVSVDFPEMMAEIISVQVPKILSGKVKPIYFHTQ
Kind of test: Inhibition of androgen receptor LBD domain (unknown origin).

Leucine-rich repeat serine/threonine-protein kinase 2, sequence (Q5S007 whole entry G2019S): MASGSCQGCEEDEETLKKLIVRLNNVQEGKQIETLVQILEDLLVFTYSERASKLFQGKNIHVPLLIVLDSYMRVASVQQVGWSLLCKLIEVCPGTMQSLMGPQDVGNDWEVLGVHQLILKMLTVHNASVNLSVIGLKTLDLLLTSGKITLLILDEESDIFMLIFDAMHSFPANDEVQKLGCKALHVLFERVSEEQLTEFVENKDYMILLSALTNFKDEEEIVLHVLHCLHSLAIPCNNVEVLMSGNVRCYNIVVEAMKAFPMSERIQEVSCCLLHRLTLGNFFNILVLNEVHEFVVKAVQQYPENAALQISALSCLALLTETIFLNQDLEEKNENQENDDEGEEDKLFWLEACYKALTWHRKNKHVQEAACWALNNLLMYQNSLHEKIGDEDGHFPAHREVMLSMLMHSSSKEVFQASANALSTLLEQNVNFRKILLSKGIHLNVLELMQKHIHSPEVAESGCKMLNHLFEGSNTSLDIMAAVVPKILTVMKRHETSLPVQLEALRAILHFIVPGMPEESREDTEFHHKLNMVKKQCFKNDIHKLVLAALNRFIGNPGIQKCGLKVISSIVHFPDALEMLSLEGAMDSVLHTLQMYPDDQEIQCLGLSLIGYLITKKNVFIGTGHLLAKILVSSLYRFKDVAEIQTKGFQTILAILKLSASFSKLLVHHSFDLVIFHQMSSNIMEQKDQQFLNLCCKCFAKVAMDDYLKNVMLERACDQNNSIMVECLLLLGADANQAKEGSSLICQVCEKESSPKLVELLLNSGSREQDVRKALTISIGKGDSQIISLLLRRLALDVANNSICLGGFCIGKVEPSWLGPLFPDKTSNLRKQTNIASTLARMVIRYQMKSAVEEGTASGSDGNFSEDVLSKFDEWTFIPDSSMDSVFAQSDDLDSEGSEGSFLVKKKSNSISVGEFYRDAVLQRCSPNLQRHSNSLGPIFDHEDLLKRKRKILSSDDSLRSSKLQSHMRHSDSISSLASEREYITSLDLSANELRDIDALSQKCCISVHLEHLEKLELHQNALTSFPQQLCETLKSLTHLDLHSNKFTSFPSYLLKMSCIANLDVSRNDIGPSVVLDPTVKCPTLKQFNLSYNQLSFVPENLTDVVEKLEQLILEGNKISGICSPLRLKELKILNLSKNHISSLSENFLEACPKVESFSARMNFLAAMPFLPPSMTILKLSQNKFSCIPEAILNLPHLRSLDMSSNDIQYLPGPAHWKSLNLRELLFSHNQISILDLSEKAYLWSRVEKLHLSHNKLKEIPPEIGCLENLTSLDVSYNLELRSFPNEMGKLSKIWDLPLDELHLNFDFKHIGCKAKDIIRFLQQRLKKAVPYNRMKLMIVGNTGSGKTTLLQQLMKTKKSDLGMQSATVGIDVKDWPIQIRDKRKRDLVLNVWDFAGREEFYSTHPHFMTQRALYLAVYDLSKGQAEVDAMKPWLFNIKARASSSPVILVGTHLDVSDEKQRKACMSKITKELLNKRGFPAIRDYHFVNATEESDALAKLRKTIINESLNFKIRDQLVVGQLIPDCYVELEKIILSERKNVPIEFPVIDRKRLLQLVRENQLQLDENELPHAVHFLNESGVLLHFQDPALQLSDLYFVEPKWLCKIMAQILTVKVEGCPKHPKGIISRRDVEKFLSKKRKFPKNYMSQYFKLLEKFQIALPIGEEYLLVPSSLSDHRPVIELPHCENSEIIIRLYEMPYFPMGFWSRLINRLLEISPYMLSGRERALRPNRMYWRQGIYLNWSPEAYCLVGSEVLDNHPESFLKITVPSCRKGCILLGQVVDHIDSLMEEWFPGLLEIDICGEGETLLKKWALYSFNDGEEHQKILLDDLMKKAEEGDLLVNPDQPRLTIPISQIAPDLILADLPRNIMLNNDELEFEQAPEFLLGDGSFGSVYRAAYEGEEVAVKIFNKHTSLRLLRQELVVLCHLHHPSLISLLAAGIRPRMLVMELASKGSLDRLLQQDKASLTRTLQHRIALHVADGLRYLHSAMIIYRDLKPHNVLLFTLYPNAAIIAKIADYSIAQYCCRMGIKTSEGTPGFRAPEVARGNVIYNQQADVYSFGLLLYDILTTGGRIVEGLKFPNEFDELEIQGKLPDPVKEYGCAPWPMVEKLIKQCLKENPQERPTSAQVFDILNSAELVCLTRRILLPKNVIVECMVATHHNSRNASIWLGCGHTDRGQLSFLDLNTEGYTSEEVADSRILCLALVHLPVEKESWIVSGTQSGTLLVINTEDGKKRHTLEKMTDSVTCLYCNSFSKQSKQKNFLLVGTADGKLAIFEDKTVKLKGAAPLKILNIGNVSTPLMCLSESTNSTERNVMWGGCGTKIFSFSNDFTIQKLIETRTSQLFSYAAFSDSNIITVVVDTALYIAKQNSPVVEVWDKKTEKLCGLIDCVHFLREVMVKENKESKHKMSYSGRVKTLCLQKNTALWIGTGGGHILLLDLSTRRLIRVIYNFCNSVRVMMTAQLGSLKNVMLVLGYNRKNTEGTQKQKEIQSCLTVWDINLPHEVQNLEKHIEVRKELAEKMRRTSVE
Histone-lysine N-methyltransferase EZH2, sequence (Q15910 whole entry): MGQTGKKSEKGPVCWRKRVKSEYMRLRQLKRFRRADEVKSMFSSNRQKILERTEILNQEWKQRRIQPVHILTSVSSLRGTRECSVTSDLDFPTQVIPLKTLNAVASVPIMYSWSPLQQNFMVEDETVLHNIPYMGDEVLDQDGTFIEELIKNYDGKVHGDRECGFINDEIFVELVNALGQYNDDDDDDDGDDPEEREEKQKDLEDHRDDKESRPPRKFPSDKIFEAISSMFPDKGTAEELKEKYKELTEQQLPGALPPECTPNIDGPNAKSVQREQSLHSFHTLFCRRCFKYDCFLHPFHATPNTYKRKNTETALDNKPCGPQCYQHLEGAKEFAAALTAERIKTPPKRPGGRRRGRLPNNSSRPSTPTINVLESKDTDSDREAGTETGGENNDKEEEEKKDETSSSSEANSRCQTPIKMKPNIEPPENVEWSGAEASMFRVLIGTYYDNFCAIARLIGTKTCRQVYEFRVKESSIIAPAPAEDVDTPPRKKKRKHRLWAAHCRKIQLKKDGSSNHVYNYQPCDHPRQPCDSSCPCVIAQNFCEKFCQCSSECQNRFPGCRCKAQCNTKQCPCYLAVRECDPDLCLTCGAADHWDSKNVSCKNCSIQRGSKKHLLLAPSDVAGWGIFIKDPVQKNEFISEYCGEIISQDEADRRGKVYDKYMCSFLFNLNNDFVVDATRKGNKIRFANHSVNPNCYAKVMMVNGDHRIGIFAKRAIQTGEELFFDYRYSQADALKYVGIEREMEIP
E3 ubiquitin-protein ligase XIAP, sequence (P98170 whole entry, the tested form may be a part): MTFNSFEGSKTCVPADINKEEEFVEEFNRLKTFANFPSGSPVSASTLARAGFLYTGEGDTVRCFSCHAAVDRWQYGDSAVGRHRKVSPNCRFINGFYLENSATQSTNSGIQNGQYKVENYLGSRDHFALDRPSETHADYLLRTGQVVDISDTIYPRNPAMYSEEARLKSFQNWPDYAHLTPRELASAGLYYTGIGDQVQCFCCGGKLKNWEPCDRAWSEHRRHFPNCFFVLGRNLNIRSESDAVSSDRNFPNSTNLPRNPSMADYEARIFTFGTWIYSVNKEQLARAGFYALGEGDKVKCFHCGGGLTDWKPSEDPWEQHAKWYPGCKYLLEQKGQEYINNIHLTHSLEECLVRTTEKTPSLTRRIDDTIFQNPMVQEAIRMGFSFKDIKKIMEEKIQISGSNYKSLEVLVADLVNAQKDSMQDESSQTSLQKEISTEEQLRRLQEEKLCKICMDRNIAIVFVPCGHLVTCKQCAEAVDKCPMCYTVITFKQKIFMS
Non-receptor tyrosine-protein kinase TYK2, sequence (P29597 whole entry): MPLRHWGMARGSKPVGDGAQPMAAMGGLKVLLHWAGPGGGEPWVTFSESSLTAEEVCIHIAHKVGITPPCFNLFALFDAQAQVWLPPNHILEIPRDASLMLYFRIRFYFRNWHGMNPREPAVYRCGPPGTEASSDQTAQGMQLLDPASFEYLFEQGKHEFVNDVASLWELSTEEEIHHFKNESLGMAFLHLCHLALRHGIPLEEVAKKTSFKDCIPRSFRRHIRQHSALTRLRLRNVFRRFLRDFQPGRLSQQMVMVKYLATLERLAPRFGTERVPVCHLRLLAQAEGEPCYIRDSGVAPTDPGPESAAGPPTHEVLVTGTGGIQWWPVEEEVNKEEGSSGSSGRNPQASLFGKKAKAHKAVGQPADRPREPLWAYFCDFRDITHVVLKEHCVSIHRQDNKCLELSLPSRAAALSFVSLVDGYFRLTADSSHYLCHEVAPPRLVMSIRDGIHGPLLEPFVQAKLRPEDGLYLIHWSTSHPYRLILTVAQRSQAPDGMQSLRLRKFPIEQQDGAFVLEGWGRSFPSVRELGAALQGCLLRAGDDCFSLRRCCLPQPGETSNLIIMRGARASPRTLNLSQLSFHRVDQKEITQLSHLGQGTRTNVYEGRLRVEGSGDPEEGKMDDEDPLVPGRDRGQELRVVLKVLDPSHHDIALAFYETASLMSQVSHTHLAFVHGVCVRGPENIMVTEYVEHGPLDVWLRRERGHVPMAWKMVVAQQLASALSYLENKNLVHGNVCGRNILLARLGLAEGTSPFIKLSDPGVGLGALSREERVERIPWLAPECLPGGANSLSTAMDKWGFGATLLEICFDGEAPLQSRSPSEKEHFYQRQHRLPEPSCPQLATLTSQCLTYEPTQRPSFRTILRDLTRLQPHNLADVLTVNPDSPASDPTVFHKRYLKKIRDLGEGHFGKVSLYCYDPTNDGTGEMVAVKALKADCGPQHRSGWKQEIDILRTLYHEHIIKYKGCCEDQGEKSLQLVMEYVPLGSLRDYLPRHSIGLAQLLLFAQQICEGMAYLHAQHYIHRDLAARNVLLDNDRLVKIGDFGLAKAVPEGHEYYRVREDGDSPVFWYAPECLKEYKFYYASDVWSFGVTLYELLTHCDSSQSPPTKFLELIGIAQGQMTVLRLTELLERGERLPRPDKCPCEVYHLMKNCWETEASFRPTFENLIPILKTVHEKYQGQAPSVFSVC

Consider `CC(C)=CCC/C(C)=C/Cc1c(O)c(CC=C(C)C)c2c(c1O)C(=O)C1=CC3CC4C(C)(C)OC(C/C=C(\C)C(=O)O)(C3=O)C14O2` (stereo unspecified), for which the pKd (in general, the Kd on a negative log10 scale, so that one unit is a factor of ten) in test [1] is 6.74.

As to `CCNc1nc(Nc2cc(F)c(C(=O)N3CCOCC3)cc2OC)ncc1C(F)(F)F`, the pKi (in general, −log10 of the Ki, conventionally taken in molar units) in [2] was 9.00.

As to `C[C@H]1[C@@H](O)O[C@@H]2O[C@@]3(C)CC[C@H]4[C@H](C)CC[C@@H]1[C@@]24OO3` [ARTENIMOL], the pIC50 in the test with A2780 and in the test with OVCAR-3 was 6.00 in each case. In addition, the “Ratio IC50” value in test [3] and in [4] was 5 throughout.

Consider `CCOCCNC(=O)/C(C)=C/CC12OC(C)(C)C3CC(C=C4C(=O)c5c(O)c(C/C=C(\C)CCC=C(C)C)c(O)c(CC=C(C)C)c5OC431)C2=O` (stereo unspecified), for which the pKd in test [1] is 6.94.

`COc1cc(Nc2ncc3c(n2)-c2ccc(Cl)cc2C(c2c(F)cccc2OC)=NC3)ccc1C(=O)O` [ALISERTIB]: the Emax in test [5] is 37%.

For the compound `C[C@@H]1CCN(C(=O)N2CCCC2)C[C@@H]1N(C)c1ncnc2[nH]ccc12`, the pIC50 (in general, −log10 of the IC50, conventionally taken in molar units) in test [6] is 8.15; in [9] it was 8.12; in test [10], 6.89; in test [11] it was 8.55. Further, the Activity in test [7] and in [8] was 50% throughout.

`Cc1cc(C)n(-c2ncc(Cl)c(Nc3ccc(Cl)cc3)n2)n1`: the pIC50 in test [12] is 4.74.

On to `CNc1nc(Nc2cn(C(C)(C)C#N)nc2C)ncc1C(F)(F)F` [DNL-201], for which the pKi in test [2] was 9.22.

Turning to `O=C(Nc1ccc(Nc2nccc(Nc3cc(C4CCCC4)[nH]n3)n2)cc1)Nc1cccc(C(F)(F)F)c1`, the pEC50 (commonly the negative decadic logarithm of the EC50, by convention in mol/L) in the test “cells” is 6.65. Moreover, the Emax in test [5] was 14%.

In [13], `CNC(=O)COc1cc2cc(Nc3nc(N4C[C@H](C)C[C@H](C)C4)ncc3Cl)cc(OC)c2n(C)c1=O` gave a pIC50 of 8.52. Also, the values for the Activity in test [14] and in test [15] were > 90% and 50%, respectively.

Turning to `CN[C@@H](C)C(=O)N[C@H](C(=O)N1CCC[C@H]1C(=O)N[C@H](C(=O)OC)C(c1ccccc1)c1ccccc1)C1CCCCC1` (H-[NMeA][Chg]P[Dip]-OMe), the figures for the pKd in test [16] and in test [17] were 8.22 and 7.80, respectively.

For `CNC(=O)COc1cc2cc(Nc3nc(N4CCC(C(=O)N(C)C)CC4)ncc3Cl)cc(OC)c2n(C)c1=O`, the values for the Activity in [14] and in test [15] were > 90% and 50%, respectively.

In the case of `CC(=O)N1CCN(CCOc2ccc(C3CCN(C4=Nn5c(nnc5C(F)(F)F)CC4)CC3)cc2)CC1` [AZD3514], the pKi on Androgen receptor is 5.30.
